Oligonucleotides are written 5' to 3', each unit as a sugar letter and its base; * is a phosphorothioate linkage, no mark a phosphodiester; rarer units and linkages stand in square brackets, end groups in braces. Plain capitals give the bases only. d = 2'-deoxy (DNA)
How the values were obtained:
human PBMC = test: Cytokine secretion (IL-10, TNF-alpha, interferon-gamma, IL-6) from human PBMC; format: cell-based; conditions: human PBMC (3 donors), 48 hours, ELISA, FIG. 27
Procedure: Peripheral blood buffy coat preparations from healthy male and female human donors were obtained from the Blood Bank of the University of Düsseldorf (Germany) and from these, PBMC were purified by centrifugation over Ficoll-Hypaque (Sigma). The purified PBMC were either used freshly (for most assays) or were suspended in freezing medium and stored at −70° C. When required, aliquots of these cells were thawed, washed and resuspended in RPMI 1640 culture medium (BioWhittaker, Belgium) supplemented with 5% (v/v) heat inactivated human AB serum (BioWhittaker, Belgium) or 10% (v/v) heat inactivated FCS, 2 mM L-glutamine (BioWhittaker), 100 U/ml penicillin and 100 μg/ml streptomycin (Invitrogen (Karlsruhe, Germany)).
Thawed or fresh PBMC were seeded on 48 well flat-bottom plates, or 96 well round-bottom plates, and incubated with ODN in the concentrations as indicated in a humidified incubator at 37° C. Culture supernatants were collected and if not used immediately, were frozen at −20° C. until required. Amounts of cytokines in the supernatants were assessed using commercially available ELISA Kits (Diaclone, USA) or in-house ELISAs developed using commercially available antibodies (from Becton Dickinson/Pharmingen or PBL). […]

human TLR9 = target: T1, human TLR9 (Homo sapiens, UniProt Q9NR96); test: Stimulation of TLR9-transfected cells in vitro (luciferase readout); format: cell-based; conditions: quotient between highest value of all concentrations tested and medium control
T1 construct: expressed in transfected cells; host or cells: HEK 293
T1 sequence (Q9NR96 26-1032): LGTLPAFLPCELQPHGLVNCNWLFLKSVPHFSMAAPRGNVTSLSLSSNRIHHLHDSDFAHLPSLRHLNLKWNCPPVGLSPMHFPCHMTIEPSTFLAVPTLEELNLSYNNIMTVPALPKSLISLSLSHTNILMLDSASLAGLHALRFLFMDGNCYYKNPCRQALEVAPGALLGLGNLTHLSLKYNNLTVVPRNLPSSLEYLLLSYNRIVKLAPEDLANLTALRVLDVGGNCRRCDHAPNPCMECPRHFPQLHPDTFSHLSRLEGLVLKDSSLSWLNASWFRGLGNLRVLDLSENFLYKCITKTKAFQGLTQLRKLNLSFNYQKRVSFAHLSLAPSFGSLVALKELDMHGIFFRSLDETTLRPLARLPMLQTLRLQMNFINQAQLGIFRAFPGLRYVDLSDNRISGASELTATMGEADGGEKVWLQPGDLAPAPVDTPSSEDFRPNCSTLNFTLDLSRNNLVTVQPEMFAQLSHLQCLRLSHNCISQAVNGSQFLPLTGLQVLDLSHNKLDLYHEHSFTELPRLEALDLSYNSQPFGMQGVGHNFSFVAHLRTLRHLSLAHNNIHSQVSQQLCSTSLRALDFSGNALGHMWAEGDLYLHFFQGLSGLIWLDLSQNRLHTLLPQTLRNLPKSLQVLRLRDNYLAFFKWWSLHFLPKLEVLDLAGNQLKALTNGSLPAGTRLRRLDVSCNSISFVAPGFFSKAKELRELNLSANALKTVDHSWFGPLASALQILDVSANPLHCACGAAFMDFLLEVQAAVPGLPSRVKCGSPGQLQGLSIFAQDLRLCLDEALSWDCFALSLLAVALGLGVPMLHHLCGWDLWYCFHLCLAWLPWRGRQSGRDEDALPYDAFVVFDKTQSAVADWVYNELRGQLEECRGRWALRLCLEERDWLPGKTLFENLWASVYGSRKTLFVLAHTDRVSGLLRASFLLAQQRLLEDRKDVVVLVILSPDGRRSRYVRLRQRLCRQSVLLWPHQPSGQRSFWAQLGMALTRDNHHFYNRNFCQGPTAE
Procedure: Methods: HEK 293 cells transfected with human TLR9 were incubated with SEQ ID NO:1, SEQ ID NO:2, SEQ ID NO:3, SEQ ID NO:4, SEQ ID NO:5, or SEQ ID NO:6 for 16 hours. The signal was determined by a luciferase readout.
The EC50 was calculated using Sigma Plot (SigmaPlot 2002 for Windows version 8.0). The maximal stimulation index (max SI) was calculated as the quotient between the highest value of all concentrations tested for any ODN and the medium control.

BALB/c mice [1] = test: Mouse model of allergic rhinitis (sneezing, nasal rubbing); format: in vivo; conditions: intranasal, 10 minute period after antigen challenge, FIG. 3
Procedure: Mice (male BALB/c) were sensitized on study days 0 and 7 with antigen (ovalbumin, 100 μg, i.p.) with aluminum hydroxide adjuvant (Pierce Alum i.p.). Mice were antigen challenged daily by exposure to intranasally-administered antigen (1 mg in 10 μl saline). The first challenge was on study day 14. SEQ ID NO:7 was administered intranasally twice. The first dose was given 2 days before the first antigen challenge. The second dose was given 7 days later. Alternatively, budesonide (an anti-inflammatory, synthetic corticosteroid) was administered intranasally daily. The first dose was given 2 days before the first antigen challenge. On each day, the budesonide dose was administered intranasally 4 hours before intranasal antigen challenge. Endpoints were measured on study day 26 (i.e. 7 days after the second dose of SEQ ID NO: 7. Nasal tissues were taken for histopathological assessment of inflammation. Separate mice received a final antigen challenge and incidences of sneezing and nasal rubbing were counted for a 10 minute period after challenge.
Methods: BALB/c mice were used to study the effects of SEQ ID NO:7 on symptoms of allergic rhinitis. […] Separate mice received a final antigen challenge and incidences of sneezing and nasal rubbing were counted for a 10 minute period after challenge.

guinea pigs [2] = test: Guinea pig AHR protocol (airway resistance and lung compliance); format: in vivo; conditions: guinea pigs, 10, 30, 100 or 300 μl/kg, i.t.
Procedure: Male guinea pigs were sensitized on study days 0 and 4 with antigen (ovalbumin, 0.5 ml, 1% OVA i.p./s.c.) with aluminum hydroxide adjuvant. Guinea pigs were antigen challenged by exposure to inhaled ovalbumin aerosol, twice each week for two consecutive weeks. The first challenge was on study day 13. CpG ODN or vehicle (saline, 20 μl) were administered intranasally once each week, two days before the first antigen challenge of the week. Airways hyperreactivity was assessed 24 hours after the last antigen challenge by measuring bronchoconstriction (increase in airway resistance) to intravenous methacholine. For each animal, a dose-response curve to methacholine was obtained, and airway reactivity was quantified as the area under the curve.
Method: Guinea pigs were sensitized as described in Example 10. The first challenge was on study day 13. Guinea pigs were given intranasally either carrier (saline), OVA alone, of concentrations of SEQ ID NO:7 of 10 μl/kg, 30 μl/kg, 100 μl/kg, or 300 μl/kg, i.t.
Method: Guinea pigs were sensitized as described in Example 10. The first challenge was on study day 13. Guinea pigs were given intranasally either carrier (saline), OVA alone, of concentrations of SEQ ID NO:2 of 10 μl/kg, 30 μl/kg, 100 μl/kg, or 300 μl/kg, i.t.

BALB/c mice [3] = test: Antigen-induced IgE and IgG2a production in the mouse; format: in vivo; conditions: i.p. 1-1000 μg/kg, serum study day 18, FIG. 19
Procedure: Methods: Mice (male BALB/c) were sensitized on study days 0 and 7 with antigen (ovalbumin, 10 μg, i.p.) and aluminum hydroxide adjuvant Pierce Alum, i.p.). Mice received SEQ ID NO:2 or SEQ ID NO:7 on study days −2, 0, 5 and 7 (i.e. two days before each sensitization and on the day of sensitization). Mice were bled by cardiac puncture on study day 18. Serum was collected by centrifugation and assayed by ELISA for ovalbumin-specific IgE and IgG2a.

guinea pigs [4] = test: Antigen-induced increase in nasal resistance in guinea pigs; format: in vivo, guinea pig; conditions: 0.03-1 mg/kg intranasal, over 40 minutes after challenge, FIG. 2
Procedure: Guinea pigs (male, Hartley) were sensitized with antigen (ovalbumin, 5 mg both intraperitoneal and subcutaneous) on study day 0. A boost sensitization (5 mg, intraperitoneal) was given on study day 4. Guinea pigs were antigen challenged by exposure to intranasally-administered antigen twice each week for two consecutive weeks. The first challenge was on study day 14. SEQ ID NO:7 (lot number AQE-03J-001-M, 0.03-1 mg/kg in […] saline) was administered intranasally once each week, two days before the first antigen challenge of the week. With the exception of the final challenge on study day 24, antigen challenge was with ovalbumin (1.5 mg/kg in 150 μl/kg saline). Animals were pretreated with mepyramine (10 mg/kg, intraperitoneal) 30 minutes before challenge to protect against histamine-induced anaphylaxis. On study day 24, guinea pigs were anesthetized to allow measurement of nasal resistance using a Buxco respiratory mechanics system and software. […] Nasal resistance was measured for 40 minutes after challenge.
Methods: To investigate the effects of the CpG oligodeoxynucleotide SEQ ID NO:7 against antigen induced increases in nasal resistance in the guinea pigs guinea pigs were sensitized with antigen, then antigen-challenged nasally. Nasal resistance was measured for 40 minutes after challenge.

**Q.** “2 (T*C_G*T*C_G*T*C_G*T*T*C_G*G*C*G*C_G*C*G*C*C*G; as printed in the source, key not given here) [compound 2]” was tested. Which “induction of IL-10” value (human PBMC) did it give?
**A.** dramatically higher induction

**Q.** Which “max SI (maximal stimulation index)” value (human TLR9) does the source give for “T*C_G*T*C_G*A*C_G*A*T*C_G*G*C*G*C_G*C*G*C*C*G (DNA TCGTCGACGATCGGCGCGCGCCG; DNA, backbone and methylation of C not given here; Stabilized (*) and phosphodiester or phosphodiester-like (_) linkages) [SEQ ID NO: 4]” here?
**A.** 14

**Q.** Which “max SI (maximal stimulation index)” value (human TLR9) does the source give for “T*C_G*T*C_G*A*C_G*T*T*C_G*G*C*G*C_G*C*G*C*C*G (DNA dT*dCdG*dT*dCdG*dA*dCdG*dT*dT*dCdG*dG*dC*dG*dCdG*dC*dG*dC*dC*dG) [SEQ ID NO: 1, Semi-soft class C CpG ODN]” here?
**A.** 22

**Q.** What about the “induction of IL-10” value (human PBMC) of the same substance?
**A.** dramatically higher induction

**Q.** “T*C_G*T*C_G*T*T*C_G*G*C*G*C*G*C*C*G (DNA TCGTCGTTCGGCGCGCCG; DNA, backbone and methylation of C not given here; Stabilized (*) and phosphodiester or phosphodiester-like (_) linkages) [SEQ ID NO: 3, Semi-soft class C CpG ODN]” was tested. Which “max SI (maximal stimulation index)” value (human TLR9) did it give?
**A.** 16

**Q.** For “T*C_G*T*C_G*T*T*T*T*G*A*C_G*T*T*T*T*G*T*C_G*T*T (DNA dT*dCdG*dT*dCdG*dT*dT*dT*dT*dG*dA*dCdG*dT*dT*dT*dT*dG*dT*dCdG*dT*dT) [SEQ ID NO: 7, Semi-soft class B CpG ODN included for comparison, reference compound]”, which “incidence of nasal rubbing” value (BALB/c mice [1]) is on record?
**A.** suppressed

**Q.** And the incidence of sneezing (BALB/c mice [1])?
**A.** suppressed

**Q.** What about the “AUC-resistance (airway reactivity, area under the dose-response curve)” value (guinea pigs [2]) of the same substance?
**A.** dose-dependent reduction

**Q.** What about the “production of antigen (ovalbumin)-specific IgE” value (BALB/c mice [3]) of the same substance?
**A.** suppressed

**Q.** And the “production of antigen (ovalbumin)-specific IgG2a” value (BALB/c mice [3])?
**A.** potentiated

**Q.** And the “antigen-induced increase in nasal resistance” value (guinea pigs [4])?
**A.** significantly suppressed

**Q.** Which “max SI (maximal stimulation index)” value (human TLR9) does the source give for “T*T*C_G*T*C_G*T*T*T*T_G*T*C_G*T*T (DNA TTCGTCGTTTTGTCGTT; DNA, backbone and methylation of C not given here; Stabilized (*) and phosphodiester or phosphodiester-like (_) linkages) [SEQ ID NO: 5]” here?
**A.** 13

**Q.** Which “max SI (maximal stimulation index)” value (human TLR9) does the source give for “T*T*T*C_G*T*C_G*T*T*T*C_G*T*C_G*T*T (DNA TTTCGTCGTTTCGTCGTT; DNA, backbone and methylation of C not given here; Stabilized (*) and phosphodiester or phosphodiester-like (_) linkages) [SEQ ID NO: 6]” here?
**A.** 11

— patent US7795235B2, “Semi-soft c-class immunostimulatory oligonucleotides” (Coley Pharmaceutical GmbH, priority 2004, dated 2010)
